Measured values published in patent publication US6489514B1, “(-)-Secoisolariciresinol as an antioxidant obtained from a new natural source namely stereospermum personatum” (Council of Scientific and Industrial Research, priority 2001, dated 2002).

Legend:
[1] = In vitro free radical scavenging antioxidant potency (DPPH); type: biochemical; details: 500 μM DPPH in ethanol, tris-HCl buffer pH 7.4, 45 minutes in dark, absorbency at 517 nm, triplicate
Protocol: Antioxidant activity of the compounds was tested for its capacity/potency to scavenge most widely used free radical, 1,1-diphenyl-2-picryl hyrazyl radical (DPPH). […] 200 μl of test compounds were reconstituted to 1 ml in tris-HCl buffer (pH 7.4). […] After incubation for 45 minutes in dark, the absorbency at 517 nm was recorder. Percent radical scavenging activity was calculated accordingly. All the readings were taken in triplicate.

[2] = Japanese Pat. No. JP0131J17; cited from earlier work
[3] = Japanese Pat No. JP02,101,011; cited from earlier work
SHBG = biological target: T1, SHBG (Homo sapiens, UniProt P04278); details: Z. Naturforsch, C. Biosc. 997,52,834-843; cited from earlier work
T1 sequence (P04278 30-402): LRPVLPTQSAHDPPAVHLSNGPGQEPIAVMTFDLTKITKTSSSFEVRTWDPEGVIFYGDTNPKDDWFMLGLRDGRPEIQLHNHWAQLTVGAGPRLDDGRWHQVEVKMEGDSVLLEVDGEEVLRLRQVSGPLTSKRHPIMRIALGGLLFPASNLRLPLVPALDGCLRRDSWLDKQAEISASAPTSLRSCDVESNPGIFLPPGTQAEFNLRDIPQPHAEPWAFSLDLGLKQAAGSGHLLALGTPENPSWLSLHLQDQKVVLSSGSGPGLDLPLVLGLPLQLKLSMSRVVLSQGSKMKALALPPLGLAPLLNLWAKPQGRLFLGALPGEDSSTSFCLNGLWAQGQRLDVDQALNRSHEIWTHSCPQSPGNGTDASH

SMILES	50% Radical scavenging concentration [1]	Activity: antitumor [2]	Activity: cardiotonic [3]	Activity: binding to SHBG (SHBG)
COc1cc(CC(CO)C(CO)Cc2ccc(O)c(OC)c2)ccc1O (single isomer, unassigned; (-)) [(−)-Secoisolariciresinol, 2,3Bis-[4-hydroxy-3-(methoxyphenyl)methyl]-1,4-butanediol]	13.72 µg/mL	1. Antitumor agent	2. Cardiotonic	3. Binding to SHBG
Cc1c(C)c2c(c(C)c1O)CCC(C)(CCCC(C)CCCC(C)CCCC(C)C)O2 (stereo not drawn) [DL α- Tocopherol, reference compound]	47.80 µg/mL	–	–	–
